Several values for one entry are separate records, joined by “and”; a condition that tells them apart may be missing. Identical values can stand only once.
What was measured:
[1] = tested on: COR-L279; experiment: SANGER: Inhibition of human COR-L279 cell growth in a cell viability assay.; format: functional, cell-based
[2] = tested on: NCI-H1694; experiment: cells; format: functional, cell-based; conditions: Homo sapiens;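 note: cell viability assay measuring inhibition of growth in human NCI-H1694 cells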
Description: SANGER: Inhibition of human NCI-H1694 cell growth in a cell viability assay.

[3] = tested on: HT55; experiment: cells; format: functional, cell-based, Homo sapiens;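 note: cell viability readout measuring growth inhibition of human HT55 cells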
Description: SANGER: Inhibition of human HT55 cell growth in a cell viability assay.

[4] = tested on: SKG-IIIa; experiment: cells; format: functional, cell-based, Homo sapiens;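 note: cell growth inhibition, read out with a cell viability assay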
Description: SANGER: Inhibition of human SKG-IIIa cell growth in a cell viability assay.

[5] = tested on: Kasumi 1; experiment: cells; format: functional, cell-based; conditions: Homo sapiens;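 note: growth inhibition of human Kasumi-1 cells, read out by a cell viability assay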
Description: SANGER: Inhibition of human KASUMI-1 cell growth in a cell viability assay.

[6] = tested on: NCI-H524; experiment: cells; format: functional, cell-based; conditions: Homo sapiens;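 note: growth inhibition of human NCI-H524 cells, read out through a cell viability assay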
Description: SANGER: Inhibition of human NCI-H524 cell growth in a cell viability assay.

[7] = tested on: NALM-6; experiment: cells; format: functional, cell-based; conditions: Homo sapiens;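 note: growth inhibition of NALM-6 cells, read out with a cell viability assay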
Description: SANGER: Inhibition of human NALM-6 cell growth in a cell viability assay.

[8] = tested on: NCI-H2081; experiment: cells; format: functional, cell-based; conditions: Homo sapiens;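 note: growth inhibition of human NCI-H2081 cells, read out with a cell viability assay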
Description: SANGER: Inhibition of human NCI-H2081 cell growth in a cell viability assay.

[9] = tested on: CaR-1; experiment: cells; format: functional, cell-based, Homo sapiens;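 note: growth inhibition of human CaR-1 cancer cells, read out with a cell viability assay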
Description: SANGER: Inhibition of human CaR-1 cell growth in a cell viability assay.

[10] = tested on: CHP-126; experiment: cells; format: functional, cell-based; conditions: Homo sapiens
Description: SANGER: Inhibition of human CHP-126 cell growth in a cell viability assay.

[11] = tested on: NCCIT; experiment: SANGER: Inhibition of human NCCIT cell growth in a cell viability assay.; format: functional, cell-based
[12] = tested on: HLE; experiment: cells; format: functional, cell-based, Homo sapiens;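 note: growth inhibition of human HLE cells, read out by a cell viability assay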
Description: SANGER: Inhibition of human HLE cell growth in a cell viability assay.

[13] = tested on: RH-18; experiment: cells; format: functional, cell-based; conditions: Homo sapiens, Rh18;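 note: growth inhibition of human RH-18 cells, read out with a cell viability assay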
Description: SANGER: Inhibition of human RH-18 cell growth in a cell viability assay.

[14] = tested on: MC-CAR; experiment: cells; format: functional, cell-based; conditions: Homo sapiens;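 note: growth inhibition of the human MC-CAR cell line, read out by a cell viability assay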
Description: SANGER: Inhibition of human MC-CAR cell growth in a cell viability assay.

[15] = tested on: HPAF-II; experiment: cells; format: functional, cell-based, Homo sapiens;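 note: growth inhibition of HPAF-II cells, read out with a cell viability assay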
Description: SANGER: Inhibition of human HPAF-II cell growth in a cell viability assay.

[16] = tested on: ARH-77; experiment: cells; format: functional, cell-based; conditions: Homo sapiens;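 note: growth inhibition of ARH-77 cells, read out by a cell viability assay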
Description: SANGER: Inhibition of human ARH-77 cell growth in a cell viability assay.

[17] = tested on: SIG-M5; experiment: cells; format: functional, cell-based; conditions: Homo sapiens;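 note: cell viability assay read-out, measuring how strongly growth of cultured human SIG-M5 cells is inhibited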
Description: SANGER: Inhibition of human SIG-M5 cell growth in a cell viability assay.

[18] = tested on: HCE-T; experiment: cells; format: functional, cell-based, Homo sapiens;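 note: cell viability assay read-out, reporting inhibition of HCE-T cell growth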
Description: SANGER: Inhibition of human HCE-T cell growth in a cell viability assay.

[19] = tested on: MHH-ES-1; experiment: cells; format: functional, cell-based, Homo sapiens
Description: SANGER: Inhibition of human MHH-ES-1 cell growth in a cell viability assay.

[20] = tested on: EHEB; experiment: cells; format: functional, cell-based; conditions: Homo sapiens;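 note: growth inhibition of human EHEB cells, read out with a cell viability assay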
Description: SANGER: Inhibition of human EHEB cell growth in a cell viability assay.

[21] = tested on: KM-H2; experiment: cells; format: functional, cell-based; conditions: Homo sapiens;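 note: growth inhibition of KM-H2 cells, read out by a cell viability assay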
Description: SANGER: Inhibition of human KM-H2 cell growth in a cell viability assay.

[22] = tested on: ESS-1; experiment: cells; format: functional, cell-based, Homo sapiens;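 note: growth inhibition of human ESS-1 cells, read out by a cell viability assay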
Description: SANGER: Inhibition of human ESS-1 cell growth in a cell viability assay.

[23] = tested on: RPMI-8866; experiment: cells; format: functional, cell-based; conditions: Homo sapiens
Description: SANGER: Inhibition of human RPMI-8866 cell growth in a cell viability assay.

[24] = tested on: MRK-nu-1; experiment: cells; format: functional, cell-based; conditions: Homo sapiens;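 note: cell viability assay measuring growth suppression of human MRK-nu-1 cells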
Description: SANGER: Inhibition of human MRK-nu-1 cell growth in a cell viability assay.

[25] = tested on: CFPAC-1; experiment: cells; format: functional, cell-based; conditions: Homo sapiens;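 note: cell viability readout used to gauge suppression of CFPAC-1 cell proliferation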
Description: SANGER: Inhibition of human CFPAC-1 cell growth in a cell viability assay.

[26] = tested on: KNS-62; experiment: cells; format: functional, cell-based; conditions: Homo sapiens;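 note: inhibition of cell growth, read out with a cell viability assay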
Description: SANGER: Inhibition of human KNS-62 cell growth in a cell viability assay.

[27] = tested on: MEL-HO; experiment: cells; format: functional, cell-based, Homo sapiens
Description: SANGER: Inhibition of human MEL-HO cell growth in a cell viability assay.

[28] = tested on: EW-16; experiment: cells; format: functional, cell-based, Homo sapiens;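 note: growth inhibition of human EW-16 cells, read out as cell viability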
Description: SANGER: Inhibition of human EW-16 cell growth in a cell viability assay.

[29] = tested on: SIMA; experiment: cells; format: functional, cell-based, Homo sapiens;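 note: growth inhibition of SIMA cells, measured with a cell viability readout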
Description: SANGER: Inhibition of human SIMA cell growth in a cell viability assay.

[30] = tested on: TK-10; experiment: cells; format: functional, cell-based, Homo sapiens;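 note: growth inhibition of TK-10 cells, read out in a cell viability assay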
Description: SANGER: Inhibition of human TK10 cell growth in a cell viability assay.

[31] = tested on: NCI-H322M; experiment: cells; format: functional, cell-based; conditions: Homo sapiens;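 note: cell viability assay measuring inhibition of growth of human NCI-H322M cells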
Description: SANGER: Inhibition of human NCI-H322M cell growth in a cell viability assay.

[32] = tested on: HCT-15; experiment: cells; format: functional, cell-based, Homo sapiens;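 note: cell viability readout, IC50 reflecting suppression of HCT-15 cell growth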
Description: SANGER: Inhibition of human HCT-15 cell growth in a cell viability assay.

[33] = tested on: SCC-3; experiment: cells; format: functional, cell-based; conditions: Homo sapiens;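 note: cell viability assay measuring inhibition of SCC-3 cell growth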
Description: SANGER: Inhibition of human SCC-3 cell growth in a cell viability assay.

[34] = tested on: IST-SL2; experiment: cells; format: functional, cell-based; conditions: Homo sapiens;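 note: growth inhibition of human IST-SL2 cells, read out by a cell viability assay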
Description: SANGER: Inhibition of human IST-SL2 cell growth in a cell viability assay.

[35] = tested on: CAL-148; experiment: cells; format: functional, cell-based; conditions: Homo sapiens
Description: SANGER: Inhibition of human CAL-148 cell growth in a cell viability assay.

[36] = tested on: 8305C; experiment: cells; format: functional, cell-based, Homo sapiens
Description: SANGER: Inhibition of human 8305C cell growth in a cell viability assay.

[37] = tested on: P31-FUJ; experiment: cells; format: functional, cell-based; conditions: Homo sapiens;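 note: growth inhibition of P31-FUJ cells, read out with a viability assay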
Description: SANGER: Inhibition of human P31-FUJ cell growth in a cell viability assay.

[38] = tested on: NCI-H64; experiment: cells; format: functional, cell-based; conditions: Homo sapiens;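 note: growth inhibition of NCI-H64 cells, read out with a cell viability assay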
Description: SANGER: Inhibition of human NCI-H64 cell growth in a cell viability assay.

[39] = tested on: NCI-H716; experiment: cells; format: functional, cell-based; conditions: Homo sapiens;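 note: growth inhibition of human NCI-H716 cells, measured by a cell viability assay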
Description: SANGER: Inhibition of human NCI-H716 cell growth in a cell viability assay.

[40] = tested on: ST486; experiment: SANGER: Inhibition of human ST486 cell growth in a cell viability assay.; format: functional, cell-based
[41] = tested on: NCI-H1963; experiment: cells; format: functional, cell-based; conditions: Homo sapiens;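 note: cell growth inhibition of the human line, determined with a cell viability assay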
Description: SANGER: Inhibition of human NCI-H1963 cell growth in a cell viability assay.

[42] = tested on: RL95-2; experiment: cells; format: functional, cell-based; conditions: Homo sapiens;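 note: RL95-2 growth inhibition determined through a cell viability readout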
Description: SANGER: Inhibition of human RL95-2 cell growth in a cell viability assay.

[43] = tested on: KARPAS-299; experiment: cells; format: functional, cell-based; conditions: Homo sapiens
Description: SANGER: Inhibition of human KARPAS-299 cell growth in a cell viability assay.

[44] = tested on: OVCAR-8; experiment: cells; format: functional, cell-based, Homo sapiens;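 note: growth inhibition of human OVCAR-8 cells, read out by a cell viability assay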
Description: SANGER: Inhibition of human OVCAR-8 cell growth in a cell viability assay.

[45] = tested on: NCI-H1666; experiment: cells; format: functional, cell-based; conditions: Homo sapiens;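 note: growth inhibition of the cell line, read out with a cell viability assay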
Description: SANGER: Inhibition of human NCI-H1666 cell growth in a cell viability assay.

[46] = tested on: D-566MG; experiment: cells; format: functional, cell-based; conditions: Homo sapiens
[47] = tested on: SK-MEL-1; experiment: cells; format: functional, cell-based; conditions: Homo sapiens;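 note: growth inhibition of human SK-MEL-1 cells, read out by a cell viability assay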
Description: SANGER: Inhibition of human SK-MEL-1 cell growth in a cell viability assay.

[48] = tested on: NCI-H748; experiment: cells; format: functional, cell-based; conditions: Homo sapiens;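 note: growth inhibition of NCI-H748 cells, measured by a cell viability assay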
Description: SANGER: Inhibition of human NCI-H748 cell growth in a cell viability assay.

[49] = tested on: SNU-16; experiment: cells; format: functional, cell-based; conditions: Homo sapiens;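 note: growth inhibition of human SNU-16 cells, determined with a cell viability readout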
Description: SANGER: Inhibition of human NCI-SNU-16 cell growth in a cell viability assay.

[50] = tested on: IM-9; experiment: SANGER: Inhibition of human IM-9 cell growth in a cell viability assay.; format: functional, cell-based
[51] = tested on: NCI-H460; experiment: cells; format: functional, cell-based, Homo sapiens;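 note: cell viability assay scoring growth inhibition of human NCI-H460 cells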
Description: SANGER: Inhibition of human NCI-H460 cell growth in a cell viability assay.

[52] = tested on: A549; experiment: cells; format: functional, cell-based; conditions: Homo sapiens;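 note: growth inhibition of A549 cells, read out with a cell viability assay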
Description: SANGER: Inhibition of human A549 cell growth in a cell viability assay.

[53] = tested on: BC-3; experiment: cells; format: functional, cell-based; conditions: Homo sapiens;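 note: cell viability assay measuring growth inhibition of human BC-3 cells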
Description: SANGER: Inhibition of human BC-3 cell growth in a cell viability assay.

[54] = tested on: DMS-153; experiment: cells; format: functional, cell-based; conditions: Homo sapiens
Description: SANGER: Inhibition of human DMS-153 cell growth in a cell viability assay.

[55] = tested on: ChaGo-K-1; experiment: cells; format: functional, cell-based; conditions: Homo sapiens;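 note: growth inhibition of ChaGo-K-1 cells, read out with a cell viability assay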
Description: SANGER: Inhibition of human ChaGo-K-1 cell growth in a cell viability assay.

[56] = tested on: DoTc2-4510; experiment: cells; format: functional, cell-based, Homo sapiens
[57] = tested on: COR-L23; experiment: cells; format: functional, cell-based, Homo sapiens;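 note: cell viability assay measuring how strongly compounds suppress growth of COR-L23 cells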
Description: SANGER: Inhibition of human COR-L23 cell growth in a cell viability assay.

[58] = tested on: LU-135; experiment: cells; format: functional, cell-based; conditions: Homo sapiens
Description: SANGER: Inhibition of human LU-135 cell growth in a cell viability assay.

Measured: IC50

Cc1cc([C@@H](C)Nc2ccccc2C(=O)O)c2nc(N3CCOCC3)cc(=O)n2c1 [AZD-6482]
1240 nM and > 5120 nM: [27]; mel-ho
> 5120 nM: [1] | [2] | [3]; Homo sapiens, HT55 | [3]; ht55 | [4]; skg-iiia | [6] | [8] | [9]; car-1 | [10] | [11] | [12]; hle | [13] | [14] | [15]; hpaf-ii | [16] | [17] | [19]; mhh-es-1 | [21] | [22]; Homo sapiens, ESS-1 | [22]; ess-1 | [23] | [24] | [25] | [26] | [28]; ew-16 | [29]; sima | [30]; tk-10 | [31] | [32]; hct-15 | [33] | [34] | [36]; 8305c | [37] | [39] | [40] | [41] | [42] | [43] | [44]; ovcar-8 | [45] | [47] | [48] | [49] | [50] | [51]; nci-h460 | [52] | [53] | [54] | [55] | [56]; dotc2-4510 | [57]; cor-l23
2060 nM: [5]
2620 nM: [38]
4180 nM: [35]
705 nM: [7]
2980 nM: [20]
3070 nM: [46]
> 5120 nM and 2090 nM: [18]; hce-t

O=c1cc(-c2cccc3c2Sc2ccccc2S3)oc(N2CCOCC2)c1 [KU-55933]
> 10000 nM: [3]; Homo sapiens, HT55 | [4]; Homo sapiens, SKG-IIIa | [9]; Homo sapiens, CaR-1 | [12]; Homo sapiens, HLE | [13] | [15]; Homo sapiens, HPAF-II | [18]; Homo sapiens, HCE-T | [19]; Homo sapiens, MHH-ES-1 | [21] | [22]; Homo sapiens, ESS-1 | [23] | [25] | [26] | [27]; Homo sapiens, MEL-HO | [28]; Homo sapiens, EW-16 | [30]; Homo sapiens, TK-10 | [58] | [32]; Homo sapiens, HCT-15 | [36]; Homo sapiens, 8305C | [43] | [44]; Homo sapiens, OVCAR-8 | [45] | [46] | [47] | [51]; Homo sapiens, NCI-H460 | [52] | [55] | [56]; Homo sapiens, DoTc2-4510 | [57]; Homo sapiens, COR-L23

CN(Cc1cnc2nc(N)nc(N)c2n1)c1ccc(C(=O)N[C@@H](CCC(=O)O)C(=O)O)cc1 [METHOTREXATE]
122 nM: [57]; Homo sapiens, COR-L23
107 nM: [19]; Homo sapiens, MHH-ES-1
> 200 nM: [3]; Homo sapiens, HT55 | [4]; Homo sapiens, SKG-IIIa | [9]; Homo sapiens, CaR-1 | [12]; Homo sapiens, HLE | [13] | [15]; Homo sapiens, HPAF-II | [18]; Homo sapiens, HCE-T | [21] | [22]; Homo sapiens, ESS-1 | [25] | [26] | [27]; Homo sapiens, MEL-HO | [28]; Homo sapiens, EW-16 | [30]; Homo sapiens, TK-10 | [58] | [43] | [44]; Homo sapiens, OVCAR-8 | [45] | [46] | [47] | [52] | [55] | [56]; Homo sapiens, DoTc2-4510
20 nM: [23]
196 nM: [36]; Homo sapiens, 8305C

CN(c1ncccc1CNc1nc(Nc2ccc3c(c2)CC(=O)N3)ncc1C(F)(F)F)S(C)(=O)=O [PF-00562271]
1800 nM: [19]; Homo sapiens, MHH-ES-1
1100 nM: [36]; Homo sapiens, 8305C
1980 nM: [27]; Homo sapiens, MEL-HO
> 2560 nM: [1] | [2] | [3]; Homo sapiens, HT55 | [4]; Homo sapiens, SKG-IIIa | [6] | [7] | [8] | [9]; Homo sapiens, CaR-1 | [10] | [11] | [12]; Homo sapiens, HLE | [14] | [15]; Homo sapiens, HPAF-II | [16] | [18]; Homo sapiens, HCE-T | [20] | [21] | [22]; Homo sapiens, ESS-1 | [23] | [24] | [29]; Homo sapiens, SIMA | [30]; Homo sapiens, TK-10 | [31] | [32]; Homo sapiens, HCT-15 | [33] | [34] | [35] | [37] | [38] | [39] | [41] | [42] | [43] | [44]; Homo sapiens, OVCAR-8 | [47] | [48] | [49] | [50] | [53] | [54] | [55] | [56]; Homo sapiens, DoTc2-4510 | [57]; Homo sapiens, COR-L23
2330 nM: [5]
1530 nM: [40]
1480 nM: [17]
2040 nM: [28]; Homo sapiens, EW-16
2050 nM: [51]; Homo sapiens, NCI-H460

Cn1cc(C2=C(c3ccc(Cl)cc3Cl)C(=O)NC2=O)c2ccccc21 [SB-216763]
> 10000 nM: [4]; Homo sapiens, SKG-IIIa | [9]; Homo sapiens, CaR-1 | [12]; Homo sapiens, HLE | [13] | [15]; Homo sapiens, HPAF-II | [18]; Homo sapiens, HCE-T | [19]; Homo sapiens, MHH-ES-1 | [21] | [23] | [25] | [26] | [27]; Homo sapiens, MEL-HO | [28]; Homo sapiens, EW-16 | [30]; Homo sapiens, TK-10 | [58] | [32]; Homo sapiens, HCT-15 | [36]; Homo sapiens, 8305C | [43] | [44]; Homo sapiens, OVCAR-8 | [45] | [46] | [47] | [51]; Homo sapiens, NCI-H460 | [52] | [55] | [56]; Homo sapiens, DoTc2-4510 | [57]; Homo sapiens, COR-L23
9600 nM: [22]; Homo sapiens, ESS-1

CCC1=C[C@@H]2CN(C1)Cc1c([nH]c3ccccc13)[C@@](C(=O)OC)(c1cc3c(cc1OC)N(C)[C@H]1[C@@](O)(C(=O)OC)[C@H](OC(C)=O)[C@]4(CC)C=CCN5CC[C@]31[C@@H]54)C2 [VINORELBINE]
17.1 nM: [34]
30.3 nM: [41]
2.48 nM: [17]
6.98 nM: [51]; Homo sapiens, NCI-H460
3.89 nM: [19]; Homo sapiens, MHH-ES-1
33.6 nM: [8]
17.8 nM: [16]
5.94 nM: [7]
4.47 nM: [24]
57 nM: [48]
59.1 nM: [9]; Homo sapiens, CaR-1
3.59 nM: [56]; Homo sapiens, DoTc2-4510
2.96 nM: [40]
6.69 nM: [55]
10.2 nM: [12]; Homo sapiens, HLE
4.92 nM: [36]; Homo sapiens, 8305C
9.11 nM: [21]
7.27 nM: [38]
> 64 nM: [1] | [3]; Homo sapiens, HT55 | [4]; Homo sapiens, SKG-IIIa | [6] | [10] | [18]; Homo sapiens, HCE-T | [20] | [29]; Homo sapiens, SIMA | [30]; Homo sapiens, TK-10 | [31] | [32]; Homo sapiens, HCT-15 | [33] | [37] | [39] | [43] | [47] | [50] | [54]
7.13 nM: [42]
17.7 nM: [5]
31.1 nM: [53]
9.27 nM: [14]
5.42 nM: [11]
6.6 nM: [44]; Homo sapiens, OVCAR-8
16.6 nM: [15]; Homo sapiens, HPAF-II
38.6 nM: [49]
15.4 nM: [35]
9.89 nM: [57]; Homo sapiens, COR-L23
44.4 nM: [2]
9.14 nM: [22]; Homo sapiens, ESS-1
7 nM: [23]
3.29 nM: [27]; Homo sapiens, MEL-HO
4.35 nM: [28]; Homo sapiens, EW-16

Source: ChEMBL document CHEMBL1201861, “Genomics of Drug Sensitity in Cancer screening data, Wellcome Trust Sanger Institute”
